We go through 7 compounds from ChEMBL document CHEMBL4732253, “Free energy perturbation in the design of EED ligands as inhibitors of polycomb repressive complex 2 (PRC2) methyltransferase” (Bioorg Med Chem Lett, 2021).

Data set [1] can be described thus: Inhibition of PRC2 in human G-401 cells assessed as reduction in methylation of H3K27 trimethylation by HTRF assay. It counts as cell-based. A general note: TR-FRET usually uses a lanthanide donor and a delayed reading to cut background.
In a further data set the target is Polycomb protein EED (Homo sapiens, UniProt O75530). Description: Binding affinity to EED (unknown origin) assessed as dissociation constant by SPR analysis. (In general: SPR reads the build-up and loss of mass on a sensor chip optically.)
The nature of data set [2]: Lipophilicity, log D of the compound in Octanol/phosphate buffer at pH 7.4 by shake-flask method. Format: physicochemical.
Data set [3] can be described thus: Intrinsic clearance in human liver microsomes. Format: ADME, Microsome. As to conditions: read-out: CLH. In general terms: Liver microsomes are vesicles of endoplasmic reticulum, rich in cytochrome P450 enzymes.
Data set [4] can be described thus: Intrinsic clearance in rat hepatocytes assessed per million cells. Format: ADME, cell-based, Hepatocyte. The settings on record: read-out: CLH.
Data set [5] in a line: Solubility of compound in PBS at pH 7.4 measured for 24 hrs. It counts as physicochemical.

Each structure is given as a SMILES string. pIC50, pKd: −log10 of the molar value. In brackets after ≈: the same amount, converted by molar mass.

Chain of Polycomb protein EED (O75530 whole entry): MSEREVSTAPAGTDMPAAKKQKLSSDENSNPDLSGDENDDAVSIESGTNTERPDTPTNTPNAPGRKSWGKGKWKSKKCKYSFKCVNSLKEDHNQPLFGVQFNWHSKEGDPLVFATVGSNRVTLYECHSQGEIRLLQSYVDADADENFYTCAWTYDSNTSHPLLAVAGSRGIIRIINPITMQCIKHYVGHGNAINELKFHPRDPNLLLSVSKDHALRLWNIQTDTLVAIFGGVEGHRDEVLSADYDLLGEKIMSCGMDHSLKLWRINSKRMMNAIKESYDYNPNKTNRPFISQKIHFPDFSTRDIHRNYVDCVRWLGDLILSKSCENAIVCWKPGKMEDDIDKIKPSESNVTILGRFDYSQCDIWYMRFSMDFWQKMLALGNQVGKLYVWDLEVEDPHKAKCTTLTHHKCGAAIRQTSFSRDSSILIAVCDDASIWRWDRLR

As a reminder, the pIC50 is the negative decadic logarithm of the IC50, by convention in mol/L. A word on the pKd: it is −log10 of the Kd, conventionally taken in molar units. For orientation: logD means lipophilicity at a set pH, counting ionised and neutral species. A high value points to a more lipophilic compound. For orientation: solubility means the dissolved amount per volume that the medium holds. A lower solubility goes with little dissolved substance. As to `Cc1ncccc1-c1cnc(NCc2c(F)cc(F)c3c2CCO3)n2cnnc12`, in data set [1], the pIC50 is 7.96. Moreover, the pKd on Polycomb protein EED is 5.92. For the same compound, the logD in data set [2] was determined as 2.6. Moreover, the microsomal CLint in data set [3] was 9 µL/min/mg. Moreover, in data set [4], the hepatocyte CLint turned out to be 9 µL/min/1e6 cells. Also, the concentration in solution in data set [5] (solubility at 24 h) was 4 µM (≈ 1.58 µg/mL).
On to `Cc1ncccc1-c1cnc(NCc2c(F)cc(Cl)c3c2CCO3)n2cnnc12`, for which the pIC50 in data set [1] was 7.80. The pKd on Polycomb protein EED is 5.62. Besides, the logD in data set [2] was 3.2. In data set [3], the microsomal CLint was 20 µL/min/mg. For the same compound, the hepatocyte CLint in data set [4] amounted to 9 µL/min/1e6 cells. Also, the solubility at 24 h in data set [5] amounted to 0.2 µM (≈ 0.0822 µg/mL).
In the case of `Cc1ncccc1-c1cnc(NCc2c(F)cc(C#N)c3c2CCO3)n2cnnc12`, the pIC50 in data set [1] was 6.99. The pKd at Polycomb protein EED was 4.82. This compound also displayed a logD in data set [2] of 2.2. Also, in data set [3], the microsomal CLint is 28 µL/min/mg. The hepatocyte CLint in data set [4] turned out to be 10 µL/min/1e6 cells. The compound also showed a solubility at 24 h in data set [5] of 3 µM (≈ 1.2 µg/mL).
As for `Cc1ncccc1-c1cnc(NCc2c(F)cc(O)c3c2CCO3)n2cnnc12`, in data set [1], the pIC50 was 7.82. The same compound showed a logD in data set [2] of 1.8. Also, the microsomal CLint in data set [3] was found to be 9 µL/min/mg. In data set [4], the hepatocyte CLint was 50 µL/min/1e6 cells. This compound also came in with a solubility at 24 h in data set [5] of 5 µM (≈ 1.96 µg/mL).
On to `Cc1ncccc1-c1cnc(NCc2c(F)cc(N)c3c2CCO3)n2cnnc12`, for which the pIC50 in data set [1] is 7.30. Further, at Polycomb protein EED, the pKd was 6.30. Also, in data set [2], the logD turned out to be 1.8. For the same compound, the microsomal CLint in data set [3] was 13 µL/min/mg. The hepatocyte CLint in data set [4] is 7 µL/min/1e6 cells.
For `Cc1ncccc1-c1cnc(NCc2c(F)ccc3c2CCO3)n2cnnc12` the same measures were 8.30, 6.40, 2.5, 15 µL/min/mg and 6 µL/min/1e6 cells.
For `COc1cc(F)c(CNc2ncc(-c3cccnc3C)c3nncn23)c2c1OCC2`, in data set [1], the pIC50 was 4.81. The negative-log Kd (pKd) on Polycomb protein EED is 3.52. Moreover, the logD in data set [2] stood at 2.3. Also, in data set [3], the microsomal CLint is 20 µL/min/mg. In addition, the hepatocyte CLint in data set [4] was found to be 4 µL/min/1e6 cells. The compound further displayed a solubility at 24 h in data set [5] of 21 µM (≈ 8.53 µg/mL).
